Laboratory results taken from patent US6060043A, “Deodorant composition containing D-amino acid” (The Gillette Company, priority 1998, dated 2000).
≈ marks a conversion by molar mass, not a printed value.

Tests used:
[1] = In vivo test for axillary irritation of 1.0% BCA; parameters: species or system human; conditions: 1.0% in 60% propylene glycol/40% water, pH about 6.25, 1.0 ml, four consecutive days, seven panelists
Method: In vivo experiments were conducted to determine if 1.0% solutions of BCA were irritating to axillary skin. BCA was dissolved in a mixture of 60% propylene glycol and 40% water at a final concentration of 1.0%. The pH of the solution was adjusted to about 6.25 with 10 N NaOH. Seven panelists applied 1.0 ml of this test solution to a cotton applicator swab and applied the solution to either the right or left axilla. 1.0 ml of a control solution of 60% propylene glycol and 40% water was similarly applied to the other axilla. The side of application of the test or control solutions was assigned in a random fashion. This procedure was performed on four consecutive days. Axilla were monitored by a nurse for signs of skin irritation.

[2] = tested on: Staphylococcus haemolyticus; experiment: Minimum inhibitory concentration (MIC) in axillary bacteria, Staphylococcus strain; type: cell-based
Method: (§1) In vitro experiments were conducted in order to determine the ability of several bacterial cell wall synthesis inhibitors to inhibit the growth of axillary bacteria. The minimum inhibitory concentrations (MIC) of β-chloro-D-alanine (BCA), and D-cycloserine were determined in Staphylococcus (Staphylococcus haemolyticus) and Coryneform strains of axillary bacteria as follows: Frozen stock cultures were thawed out and 50 μl of Staphylococcus haemolyticus or 100 μl of Coryneform bacteria were inoculated into 5.0 ml of nutrient media. Bacteria were incubated at 35° C. overnight to produce cultures in log phase growth. A series of tubes was set up into which serial dilutions of BCA or triclosan in nutrient media were added in the range of 0.1 to 0.0001 wt/v % (where 1 g/100 ml=1 wt/v %). The tubes were inoculated with 50 μl of log phase Staphylococcus haemolyticus or Coryneform cultures and incubated at 35° C. overnight. […] The minimum bactericidal concentration (MBC) was determined by adding 50 μl from each clear solution of the MIC experiment into 5.0 ml of fresh nutrient media and incubating overnight at 37° C. […] The MIC of BCA was thus determined to be 0.1 wt/v % and 0.001 wt/v % in Staphylococcus haemolyticus and Coryneforms, respectively. The MIC of D-cycloserine was thus determined to be 0.01 wt/v % and 0.005 wt/v % in Staphylococcus haemolyticus and Coryneforms, respectively. By comparison, the MIC of the common antibacterial deodorant compound triclosan is 0.01 wt/v % and 0.1 wt/v % in Staphylococcus haemolyticus and Coryneforms, respectively.

axillary malodor [3] = experiment: Example 6: axillary malodor evaluation by odor judges, 1.0% β-chloro-D-alanine vs 1.0% β-chloro-L-alanine; type: in vivo, human; parameters: key to 24 Hour Drop from Control / A-B (drop), D-BCA minus L-BCA: drop in odor score on 0 (no odor) to 10 (very intense) scale; conditions: for 24 Hour Drop from Control: 1.0% in 60% propylene glycol/40% water
Method: (§2) BCA was dissolved in a mixture of 60% propylene glycol and 40% water at a final concentration of 1.0%. The pH of the solution was adjusted to about 6.25 with 10 N NaOH. Thirty-nine female panelists applied 0.5 ml of this test solution to either the right or left axilla and 0.5 ml of a comparative solution of 60% propylene glycol and 40% water to the other. The side of application of the test or comparative solutions was assigned in a random fashion. Twenty-four hours after application, each side of the panelists' axilla was judged for odor by a panel of trained odor judges on a scale of 0 (no odor) to 10 (very intense, disagreeable odor). This procedure was performed on four consecutive days. […] Analysis of the clinical results is summarized below:
A test product containing 1.0% β-chloro-D-alanine (BCA)[…] in 60% propylene glycol/40% water was compared to a comparative product containing 1.0% β-chloro-L-alanine in 60% propylene glycol/40% water by application to 50 female test subjects according to the procedure of Example 4.

β-lyase = experiment: Sniff vial test: malodor formation from precursors by whole Staphylococcus haemolyticus cells (beta-lyase inhibition); type: cell-based; conditions: 31-0.625 mM, phosphate buffer pH 6.8, 30 minutes at 35° C.; judged by smelling
Method: BCA was tested for its ability to prevent Staphylococcus haemolyticus from metabolizing sweat to form malodor. Log-phase cultures of Staphylococcus haemolyticus were incubated with various concentrations of BCA (31-0.625 mM) in phosphate buffer (pH 6.8) for 30 minutes at 35° C. The cell/BCA mixture was then added to a "sniff vial" containing malodor precursors and incubated at 35° C. for an additional 30 minutes. Malodor compounds were then extracted from the mixture with chloroform and malodor was judged by spotting 10 μl of chloroform extracts onto bibulous paper and smelling. […] In contrast, the β-lyase inhibitor aminooxyacetic acid (AOA) consistently prevents malodor in the above assay at concentrations of 5.0 mM.

axillary malodor [4] = experiment: Example 4: axillary malodor evaluation by trained odor judges, 1.0% BCA vs vehicle; type: in vivo, human; conditions: for 24 hours drop from untreated Control / Malodor Evaluation (score): 1.0% BCA; for Malodor Evaluation (score): 24 h after application, scale 0 to 10
Method: as §2
Significance was measured in a two-tailed T-test al 95% confidence level and n=number of subjects.

Coryneform bacteria = experiment: Minimum inhibitory concentration (MIC) in axillary bacteria, Coryneform strain; type: cell-based, Coryneform strains of axillary bacteria
Method: as §1

With `N[C@H](CCl)C(=O)O` [BCA, β-chloro-D-alanine] the Axillary skin irritation [1] was “No incidences of irritation were reported”, the MIC [2] was 1000 µg/mL (≈ 8.09 mM) and the “A-B (drop), D-BCA minus L-BCA” value (axillary malodor [3]; composite) was 0.436. For the same molecule, the “24 Hour Drop from Control” value (axillary malodor [3]; composite) was 1.519, the “Control of malodor, BCA test product versus 1.0% β-chloro-L-alanine comparative product” value (axillary malodor [3]; measurements 2-4 and composite, 95% level of confidence, not the first measurement) was “significantly more effective” and the “A-B (drop), D-BCA minus L-BCA” value (axillary malodor [3]; post-application measurement 1) was 0.166. The “24 Hour Drop from Control” value (axillary malodor [3]; post-application measurement 1) was 1.079, the “A-B (drop), D-BCA minus L-BCA” value (axillary malodor [3]; post-application measurement 2) was 0.452 and the “24 Hour Drop from Control” value (axillary malodor [3]; post-application measurement 2) was 1.492. The “A-B (drop), D-BCA minus L-BCA” value (axillary malodor [3]; post-application measurement 3) was 0.665, the “24 Hour Drop from Control” value (axillary malodor [3]; post-application measurement 3) was 1.678 and the “A-B (drop), D-BCA minus L-BCA” value (axillary malodor [3]; post-application measurement 4) was 0.529. For the same molecule, the “24 Hour Drop from Control” value (axillary malodor [3]; post-application measurement 4) was 1.862, the “Inhibition of malodor formed by staphylococcal metabolism of precursors” value (β-lyase) was “did not inhibit malodor” and the Axillary skin irritation (axillary malodor [4]; 1.0% in 60% propylene glycol/40% water, 0.5 ml, four consecutive days, thirty-nine female panelists) was “No incidences of irritation were reported”. The “Deodorant efficacy versus 60% propylene glycol/40% water comparative product” value (axillary malodor [4]; 95% confidence level, measurements 3, 4 and composite) was “significantly more effective”, the “A-B (drop of comparative product minus drop of BCA product)” value (axillary malodor [4]; composite) was -0.29 and the “24 hours drop from untreated Control” value (axillary malodor [4]; composite) was 0.96. For the same molecule, the “Malodor Evaluation (score)” value (axillary malodor [4]; measurement 1) was 4.18, the “Malodor Evaluation (score)” value (axillary malodor [4]; measurement 2) was 3.6 and the “Malodor Evaluation (score)” value (axillary malodor [4]; measurement 3) was 3.3. The “Malodor Evaluation (score)” value (axillary malodor [4]; measurement 4) was 3.49, the “A-B (drop of comparative product minus drop of BCA product)” value (axillary malodor [4]; post-application measurement 1) was 0.11 and the “24 hours drop from untreated Control” value (axillary malodor [4]; post-application measurement 1) was 0.41. For the same molecule, the “A-B (drop of comparative product minus drop of BCA product)” value (axillary malodor [4]; post-application measurement 2) was -0.21, the “24 hours drop from untreated Control” value (axillary malodor [4]; post-application measurement 2) was 0.99 and the “A-B (drop of comparative product minus drop of BCA product)” value (axillary malodor [4]; post-application measurement 3) was -0.50. The “24 hours drop from untreated Control” value (axillary malodor [4]; post-application measurement 3) was 1.29, the “A-B (drop of comparative product minus drop of BCA product)” value (axillary malodor [4]; post-application measurement 4) was -0.62 and the “24 hours drop from untreated Control” value (axillary malodor [4]; post-application measurement 4) was 1.10. For the same molecule, the MIC (Coryneform bacteria) was 10 µg/mL (≈ 0.0809 mM).
